This passage reports inhibition of inactivation, two-electrode voltage clamp on oocytes: concentration-response curve on NaV1.6, EC50 (Figure S4C) and two-electrode voltage clamp on oocytes: concentration-response curve of the toxin-induced modulation of BgNaV1 currents, EC50 results from publication PMC5864730, “Peptide ion channel toxins from the bootlace worm, the longest animal on Earth” (Scientific Reports, 2018).

Experiment [1] deals with DmNaV1. The following applies: cited from earlier work. An excerpt: (§1) The α-1 induced alterations of gating kinetics resemble the effects of other peptide toxins known to be binding to the so-called neurotoxin binding site 3[18],[19]. Such toxins trap the voltage-sensing segment S4 of domain 4 in its inward or dea ...
The test system of experiment [2] is BgNaV1. The note with it: cited from earlier work.
Text: as §1

Experiment [3] has as its target voltage-gated sodium channel NaV1.6 (not stated (mNaV1.6 in the methods, human in the results)) (UniProt Q9WTU3).
For experiment [4], the target named is Blattella germanica voltage-gated sodium channel BgNaV1 (Blattella germanica) (UniProt O01307).

Positions of bridges follow the written chain, without caps; N, C: chain ends. Non-standard residues stand in square brackets, D forms with d. No end group written: not given here. Hyp = O=C(O)[C@@H]1C[C@@H](O)CN1

Take ATX-II: sea anemone toxin: the inhibition of inactivation entry in experiment [1] and in experiment [2] was “complete inhibition of the inactivation” throughout.
Turning to anthopleurin A: sea anemone toxin, the inhibition of inactivation result in experiment [1] and in experiment [2] was “complete inhibition of the inactivation” in each case.

B1: nemertide α-1 (peptide)
peptide: GCIATGSFCTLSKGCCTKNCGWNFKCN[Hyp][Hyp]NQK
modifications: disulfide 15-26, 2-16, 9-20
B1 displayed a two-electrode voltage clamp on oocytes: concentration-response curve on NaV1.6, EC50 (Figure S4C) in experiment [3] of 800 nM. For the same molecule, the two-electrode voltage clamp on oocytes: concentration-response curve of the toxin-induced modulation of BgNaV1 currents, EC50 in experiment [4] stood at 8.6 nM.
